According to paper PMC11596392, “Enhanced Antibacterial, Anti-Inflammatory, and Antibiofilm Activities of Tryptophan-Substituted Peptides Derived from Cecropin A-Melittin Hybrid Peptide BP100” (Molecules, 2024):
Where no end group is shown, it is not given here.

Experiments:
S. aureus (KCTC 1621) = type: cell-based, Staphylococcus aureus; details: broth microdilution in MHB, 37 °C, 24 h, 100% inhibition of growth
Method: (§1) The antibacterial efficacy of the synthesized peptides was evaluated by determining the minimal inhibitory concentrations (MICs) against six standard bacterial strains and five drug-resistant bacterial strains using the Clinical and Laboratory Standards Institute (CLSI) microdilution method. Melittin served as the positive control.
(§2) The minimal inhibitory concentrations (MICs) of the peptides against bacterial strains were determined using a modified broth-microdilution method in accordance with the National Committee for Clinical Laboratory Standards (NCCLS) guidelines. Overnight cultures were diluted in cation-adjusted Mueller–Hinton Broth (MHB) to achieve an inoculum density of 2 × 10^6 CFU/mL. A two-fold serial dilution of the peptide solution (100 μL) was introduced into microtiter plates, followed by the addition of 100 μL of bacterial suspension. The plates were then incubated at 37 °C for 24 h to determine the MICs. Wells containing only culture media served as negative controls, while those with added bacteria functioned as positive controls. The MIC, expressed in μM, was defined as the lowest peptide concentration that prevented visible bacterial growth. This protocol was also employed to determine MICs in the presence of physiological salts (150 mM of NaCl, 4.5 mM of KCl, 6 μM of NH4Cl, 1 mM of MgCl2, 2.5 mM of CaCl2, and 4 μM of FeCl3) and 20% human serum to assess the peptides’ efficacy under conditions more closely resembling physiological environments. All experiments were conducted in triplicate and repeated three times independently to ensure reproducibility and statistical significance of the results.

MRSA (CCARM 3089) = type: cell-based, methicillin-resistant Staphylococcus aureus; details: broth microdilution in MHB, 37 °C, 24 h, 100% inhibition of growth
Method: as §1, §2

MRSA (CCARM 3090) = type: cell-based, methicillin-resistant Staphylococcus aureus; details: broth microdilution in MHB, 37 °C, 24 h, 100% inhibition of growth
Method: as §1, §2

E. coli (KCTC 1682) = type: cell-based, Escherichia coli; details: broth microdilution in MHB, 37 °C, 24 h, 100% inhibition of growth
Method: as §1, §2

[1] = test system: P. aeruginosa (KCTC 1637); type: cell-based, Pseudomonas aeruginosa; details: broth microdilution in MHB, 37 °C, 24 h, 100% inhibition of growth
Method: as §1, §2

MDRPA (CCARM 2095) = type: cell-based, multidrug-resistant Pseudomonas aeruginosa; details: broth microdilution in MHB, 37 °C, 24 h, 100% inhibition of growth
Method: as §1, §2

MDRPA (CCARM 2109) = type: cell-based, multidrug-resistant Pseudomonas aeruginosa; details: broth microdilution in MHB, 37 °C, 24 h, 100% inhibition of growth
Method: as §1, §2

[2] = test system: MDRPA (CCARM 2095) biofilm formation; type: cell-based, multidrug-resistant Pseudomonas aeruginosa; details: overnight 37 °C, crystal violet staining; for MBIC50: 50% inhibition; for MBIC90: 90% inhibition
Excerpt: Bacterial biofilms, comprising communities of bacterial cells encased in a matrix of polysaccharides and nucleic acids, present a significant challenge for conventional antibiotics due to the protective nature of this matrix. Biofilms can enhance bacterial resistance to antibiotics by up to 1000-fold compared to planktonic bacteria. To address this issue, there is an urgent need to discover and develop novel alternative therapeutic agents capable of effectively combating biofilm-forming bacteria. […] Our research specifically focused on evaluating the impact of BP100 and its analogs on biofilm formation and eradication using multidrug-resistant Pseudomonas aeruginosa (MDRPA), a common pathogen responsible for biofilm-mediated nosocomial infections. The adhered biomass was quantified using crystal violet staining, and the minimum biofilm inhibitory concentration (MBIC90) was determined as the lowest concentration required to inhibit 90% of biofilm growth relative to the positive control. […] Human cathelicidin LL-37 is well-documented for its potent antibiofilm properties.
The inhibitory activity of the peptides on biofilm formation was evaluated against multidrug-resistant Pseudomonas aeruginosa (MDRPA) (CCARM 2095) using a biofilm inhibition assay to determine the minimal biofilm inhibitory concentration (MBIC). Peptide solutions were serially diluted in sterile water and aliquoted (100 μL) into a 96-well Costar polypropylene plate (Corning Inc., Corning, NY, USA). An equal volume of MDRPA suspension in Mueller–Hinton Broth (MHB), adjusted to 1 × 10^6 CFU/mL, was added to each well, resulting in a final inoculum density of 5 × 10^5 CFU/mL. Following overnight incubation at 37 °C, bacterial growth was quantified by measuring the optical density (OD) at 595 nm. Planktonic cells were then discarded, and the attached biofilms were washed thrice with distilled water. Residual biofilms were stained with 0.1% crystal violet for five minutes, washed to remove non-adherent dye, and subsequently destained using 95% ethanol. The OD at 595 nm was measured again to assess the biofilm mass. Control wells contained untreated bacteria. The MBIC was defined as the lowest peptide concentration that inhibited any residual crystal violet staining or biofilm formation. All assays were conducted in triplicate to ensure reproducibility. This method allows for the quantitative assessment of the peptides’ ability to prevent biofilm formation, a critical virulence factor in many bacterial infections, particularly those caused by multidrug-resistant strains.

[3] = test system: preformed MDRPA (CCARM 2095) biofilms; type: cell-based, multidrug-resistant Pseudomonas aeruginosa; details: 24 h treatment; for MBEC50: 50% eradication; for MBEC90: 90% eradication
Method: While preventing biofilm formation on surfaces is crucial, treating established biofilm infections presents a significant challenge due to the extracellular polymeric substance (EPS) matrix hindering antibiotic penetration and the high cell density within mature biofilms. To address this challenge, we evaluated the ability of BP100 and its analogs to eradicate established MDRPA biofilms over a 24 h period. The minimum biofilm eradication concentration (MBEC90) was determined using crystal violet staining as the lowest concentration that reduced biomass by more than 90%. Among these peptides, BP5, BP6, BP7, BP8, BP9, BP11, and BP13 eradicated preformed MDRPA biofilms by more than 90% at a concentration of 8 μM (Figure 3c,d and Table 3).
The minimal biofilm eradication concentration (MBEC) for peptides against the multidrug-resistant Pseudomonas aeruginosa (MDRPA) (CCARM 2095) strain was assessed using the Calgary Biofilm Device (CBD), supplied by Innovotech, Edmonton, AB, Canada. A bacterial suspension with a density of (1 × 10^6) CFU/mL in (150 µL) of Luria–Bertani (LB) media was dispensed into each well of a 96-well microtiter plate, which was equipped with a peg lid (Innovotech, product code: 19111). This plate was incubated at 37 °C for 24 h with agitation at 110 rpm, promoting biofilm formation on the pegs. Subsequently, the peg lid was washed with phosphate-buffered saline (PBS, 0.01 M) and relocated to a fresh plate containing varying peptide concentrations (200 µL per well). The biofilms were then subjected to these peptides under the same incubation conditions. After another PBS rinse, the peg lid was moved to a recovery plate filled with (200 µL) of LB media per well. To detach the biofilms from the pegs, the recovery plate underwent sonication in a water bath for 10 to 15 min. Finally, the recovery plate was incubated at 37 °C for 24 h with agitation at 110 rpm, allowing any surviving bacteria to proliferate and cause turbidity. The MBEC is defined as the lowest concentration of peptides that inhibited turbidity formation in the recovery plate in comparison to sterility controls. This experiment was conducted in triplicate, and the median value from each trial was recorded.

Molecule | Minimal Inhibitory Concentration (MIC) (S. aureus (KCTC 1621)) | Minimal Inhibitory Concentration (MIC) (MRSA (CCARM 3089)) | Minimal Inhibitory Concentration (MIC) (MRSA (CCARM 3090)) | Minimal Inhibitory Concentration (MIC) (E. coli (KCTC 1682)) | Minimal Inhibitory Concentration (MIC) [1] | Minimal Inhibitory Concentration (MIC) (MDRPA (CCARM 2095)) | Minimal Inhibitory Concentration (MIC) (MDRPA (CCARM 2109)) | MBIC50 [2] | MBIC90 [2] | MBEC50 [3] | MBEC90 [3]
CC[C@H](C)[C@H](NC(=O)[C@H](CCCCN)NC(=O)[C@H](CCCCN)NC(=O)[C@H](Cc1c[nH]c2ccccc12)NC(=O)[C@H](CC(C)C)NC(=O)[C@H](CCCCN)NC(=O)[C@@H](N)CCCCN)C(=O)N[C@@H](CC(C)C)C(=O)N[C@@H](CCCCN)C(=O)N[C@@H](Cc1ccc(O)cc1)C(=O)N[C@@H](CC(C)C)C(N)=O [BP1] | 8 µM | 32 µM | 64 µM | 8 µM | 16 µM | 16 µM | 16 µM | 4 to 8 µM | 8 µM | 8 µM | 16 µM
CC(C)C[C@H](NC(=O)[C@H](Cc1ccc(O)cc1)NC(=O)[C@H](CCCCN)NC(=O)[C@H](CC(C)C)NC(=O)[C@H](Cc1c[nH]c2ccccc12)NC(=O)[C@H](CCCCN)NC(=O)[C@H](CCCCN)NC(=O)[C@H](Cc1ccccc1)NC(=O)[C@H](CC(C)C)NC(=O)[C@H](CCCCN)NC(=O)[C@@H](N)CCCCN)C(N)=O [BP2] | 4 µM | 16 µM | 16 µM | 2 µM | 8 µM | 8 µM | 4 µM | 8 to 16 µM | 16 µM | 16 to 32 µM | 32 µM
CC[C@H](C)[C@H](NC(=O)[C@H](CCCCN)NC(=O)[C@H](CCCCN)NC(=O)[C@H](Cc1ccccc1)NC(=O)[C@H](CC(C)C)NC(=O)[C@H](CCCCN)NC(=O)[C@@H](N)CCCCN)C(=O)N[C@@H](Cc1c[nH]c2ccccc12)C(=O)N[C@@H](CCCCN)C(=O)N[C@@H](Cc1ccc(O)cc1)C(=O)N[C@@H](CC(C)C)C(N)=O [BP3] | 8 µM | 64 µM | 64 µM | 8 µM | 32 µM | 16 µM | 16 µM | 8 to 16 µM | 16 µM | 16 µM | 32 µM
CC[C@H](C)[C@H](NC(=O)[C@H](CCCCN)NC(=O)[C@H](CCCCN)NC(=O)[C@H](Cc1ccccc1)NC(=O)[C@H](CC(C)C)NC(=O)[C@H](CCCCN)NC(=O)[C@@H](N)CCCCN)C(=O)N[C@@H](CC(C)C)C(=O)N[C@@H](CCCCN)C(=O)N[C@@H](Cc1c[nH]c2ccccc12)C(=O)N[C@@H](CC(C)C)C(N)=O [BP4] | 4 µM | 64 µM | 64 µM | 4 µM | 16 µM | 8 µM | 16 µM | 4 to 8 µM | 8 µM | 8 µM | 32 µM
CC[C@H](C)[C@H](NC(=O)[C@H](CCCCN)NC(=O)[C@H](CCCCN)NC(=O)[C@H](Cc1ccccc1)NC(=O)[C@H](CC(C)C)NC(=O)[C@H](CCCCN)NC(=O)[C@@H](N)CCCCN)C(=O)N[C@@H](CC(C)C)C(=O)N[C@@H](CCCCN)C(=O)N[C@@H](Cc1ccc(O)cc1)C(=O)N[C@@H](CC(C)C)C(N)=O [BP100] | 4 µM | 32 µM | 64 µM | 4 µM | 16 µM | 32 µM | 16 µM | 4 to 8 µM | 8 µM | 16 to 32 µM | 32 µM
KKLFKKILKWW-NH2 [BP12] | 4 µM | 64 µM | 64 µM | 8 µM | 16 µM | 16 µM | 16 µM | 4 to 8 µM | 8 µM | 8 to 16 µM | 16 µM
KKLFKKIWKWL-NH2 [BP11] | 4 µM | 8 µM | 32 µM | 8 µM | 8 µM | 8 µM | 16 µM | 4 to 8 µM | 8 µM | 4 to 8 µM | 8 µM
KKLFKKWLKYW-NH2 [BP10] | 8 µM | 64 µM | 64 µM | 8 µM | 8 µM | 16 µM | 16 µM | 16 to 32 µM | 32 µM | 8 to 16 µM | 16 µM
